What all share (format): cell-based
One test concerns caspase-3. In words: Western blotting of caspase-3 activation (apoptosis inhibitory effect) in okadaic acid-treated human neuroblasts. To be noted: SH-SY5Y cells, 100 nM okadaic acid, 0.3 mM S1PC, 6 hours, FIG. 3. The protocol: (§1) Human neuroblastoma cell line SH-SY5Y cells were cultured in a Dulbecco's modified Eagle medium supplemented with 10% fetal bovine serum, and antibiotic penicillin-streptomycin solution, and the cultured cells were used as cells for evaluation test.
100 nM okadaic acid and 0.3 mM S1PC were added to the human neuroblasts for evaluation test prepared in (2) above, and the cells were cultured for 6 hours. A cell extract was prepared in the same manner as in (a) above, and analyzed by western blotting in accordance with a usual method. An anti-caspase-3 antibody (manufactured by Cell Signaling Technology, Inc.) and an anti-β-actin antibody (manufactured by Wako Pure Chemical Industries, Ltd.) were used as antibodies.
Background: Immunoblotting shows a protein as a band on a membrane.

Another test deals with tau protein. Nature of the test: Western blotting of tau protein (tau protein-removing effect) in okadaic acid-treated human neuroblasts. To be noted: SH-SY5Y cells. The protocol:
as §1
(§2) Okadaic acid (at a concentration of 100 nM) and S1PC (at concentrations of 0.03, 0.1, and 0.3 mM) were added to the human neuroblasts for evaluation test prepared in (2) above, and the cells were cultured for 6 hours. After culturing, the cultured cells were washed with a phosphate buffer, and then lysed with RIPA cell lysis buffer (manufactured by Millipore Corporation) diluted 10-fold with purified water containing a protease/phosphatase cocktail inhibitor (manufactured by Thermo Fisher Scientific K.K.). After that, centrifugation was conducted (at 10000 rpm, for 10 minutes, at 4° C.), and the supernatant was used as a cell extract. This cell extract was used to conduct analysis by western blotting in accordance with a usual method. An anti-Atg7 antibody (manufactured by Cell Signaling Technology, Inc.), an anti-4T-tau antibody (manufactured by Wako Pure Chemical Industries, Ltd.), and an anti-β-actin antibody (manufactured by Wako Pure Chemical Industries, Ltd.) were used as antibodies.
10 nM okadaic acid, 0.3 mM S1PC, and 10 mM autophagy inhibitor (3-methyladenine) were added to the human neuroblasts for evaluation test prepared in (2) above, and the cells were cultured for 24 hours. A cell extract was prepared in the same manner as in (a) above, and analyzed by western blotting in accordance with a usual method. An anti-Atg7 antibody (manufactured by Cell Signaling Technology, Inc.), an anti-4T-tau antibody (manufactured by Wako Pure Chemical Industries, Ltd.), and an anti-β-actin antibody (manufactured by Wako Pure Chemical Industries, Ltd.) were used as antibodies.
50 nM okadaic acid and 0.3 mM S1PC or SAC were added to the human neuroblasts for evaluation test prepared in (2) above, and the cells were cultured for 6 hours. A cell extract was prepared in the same manner as in (a) above, and analyzed by western blotting in accordance with a usual method. An anti-4T-tau antibody (manufactured by Wako Pure Chemical Industries, Ltd.) and an anti-β-actin antibody (manufactured by Wako Pure Chemical Industries, Ltd.) were used as antibodies.

The next test relates to LC3B-II. Nature of the test: Western blotting of LC3B-II expression in rotenone-treated human neuroblasts. To be noted: SH-SY5Y cells, 10 μM rotenone, 0.3 mM S1PC, 1 mM 3-methyladenine, 3 hours, FIG. 5. The protocol: as §1
(§3) 10 μM rotenone, 0.3 mM S1PC, and 1 mM autophagy inhibitor (3-methyladenine) were added to the human neuroblasts for evaluation test prepared in (2) above, and the cells were cultured for 3 hours. A cell extract was prepared in the same manner as in (a) above, and analyzed by western blotting in accordance with a usual method. An anti-α-synuclein antibody, an anti-LC3B antibody (manufactured by Cell Signaling Technology, Inc.), and an anti-β-actin antibody (manufactured by MEDICAL & BIOLOGICAL LABORATORIES CO., LTD.) were used as antibodies.

The subject of another test is Atg7. In words: Western blotting of Atg7 expression (autophagy activation) in okadaic acid-treated human neuroblasts. To be noted: SH-SY5Y cells. The protocol: as §1
as §2, with “An anti-Atg7 antibody (manufactured by Cell Signaling Technology, Inc.), an anti-4T-tau antibody (manufactured by Wako Pure Chemical Industries, Ltd.), and an anti-β-actin antibody (manufactured by Wako Pure Chemical Industries, Ltd.) were used as antibodies.” left out
10 nM okadaic acid, 0.3 mM S1PC, and 10 mM autophagy inhibitor (3-methyladenine) were added to the human neuroblasts for evaluation test prepared in (2) above, and the cells were cultured for 24 hours. A cell extract was prepared in the same manner as in (a) above, and analyzed by western blotting in accordance with a usual method. […]

The subject of a further test is α-synuclein protein. Nature of the test: Western blotting of α-synuclein protein (α-synuclein protein-removing effect) in rotenone-treated human neuroblasts. To be noted: SH-SY5Y cells, 3 hours. The protocol:
as §1, §3
as §3, with “500 nM” for “10 μM”, “rotenone, and” for “rotenone,”, “S1PC or SAC” for “S1PC, and 1 mM autophagy inhibitor (3-methyladenine)”, “(2),” for “(2) above,”, “used. […] Therefore, S1PC is considered to be useful for Parkinson's disease, for example, accompanied by α-synuclein protein accumulation.” for “used as antibodies.”

[1] abbreviates: 10 nM okadaic acid, 0.3 mM S1PC, 10 mM 3-methyladenine, 24 hours, FIG. 2.
Setting [2] is: okadaic acid 100 nM, S1PC 0.03, 0.1 and 0.3 mM, 6 hours, FIG. 1.

Consider `CC=CSCC(N)C(=O)O` (centres unmarked) [S1PC, S-1-propenylcysteine], for which the “activation of caspase-3” value in the test with caspase-3 is given as “suppressed”. Besides, in the test with tau protein (setting [1]), the “tau protein-removing effect with autophagy inhibitor” value is recorded as “suppressed by adding the autophagy inhibitor”. The “tau protein-removing effect compared with SAC” value with tau protein (50 nM okadaic acid, 0.3 mM S1PC or SAC, 6 hours, FIG. 4) is given as “superior to SAC”. Moreover, the tau protein result in the test on tau protein (50 nM okadaic acid, 0.3 mM, 6 hours, FIG. 4) is “decreased”. Moreover, the “removal of tau proteins” value in the test on tau protein (setting [2]) is listed as “promoted removal”. Also, the “LC3B-II expression-increasing effect with autophagy inhibitor” value in the test with LC3B-II is recorded as “suppressed by adding the autophagy inhibitor”. The “Atg7 expression-increasing effect with autophagy inhibitor” value in the test on Atg7 (setting [1]) was “suppressed by adding the autophagy inhibitor”. In addition, in the test on Atg7 (setting [2]), the Atg7 expression result is “increased”. Moreover, the “α-synuclein protein-removing effect compared with SAC” value with α-synuclein protein (500 nM rotenone, 0.3 mM S1PC or SAC, FIG. 6) is recorded as “superior to SAC”. In addition, the α-synuclein protein result in the test with α-synuclein protein (500 nM rotenone, 0.3 mM, FIG. 6) is recorded as “decreased”. The “α-synuclein protein-removing effect with autophagy inhibitor” value in the test with α-synuclein protein (10 μM rotenone, 0.3 mM S1PC, 1 mM 3-methyladenine, FIG. 5) is listed as “suppressed by adding the autophagy inhibitor”.

The record behind these values is patent publication US12324795B2, “Autophagy activating agent” (WAKUNAGA PHARMACEUTICAL CO., LTD., priority 2018, dated 2025).
